In brackets after ≈: the same amount, converted by molar mass. Non-standard residues stand in square brackets, D forms with d. Residues, ends and D or L forms follow the SMILES beside them. Chg = N[C@H](C(=O)O)C1CCCCC1; dDab = NCC[C@@H](N)C(=O)O; Nle = CCCC[C@H](N)C(=O)O; Orn = NCCC[C@H](N)C(=O)O; Dab = NCC[C@H](N)C(=O)O
Key:
[1] = system: Pseudomonas aeruginosa IMP 1 Livermore 3140; format: cell-based; details: IMP 1 Livermore 3140
Procedure: (§1) The selective antimicrobial activities of the peptides were determined in 96-well plates (Nunclon polystyrene) by the standard NCCLS broth microdilution method (see ref 1, below) with slight modifications. Innocula of the microorganisms were diluted into Mueller-Hinton (MH) broth+0.02% BSA and compared with a 0.5 Mcfarland standard to give appr. 10^6 colony forming units (CFU)/ml. Aliquots (50 μl) of inoculate were added to 50 μl of MH broth+0.02% BSA containing the peptide in serial two-fold dilutions. The following microorganisms were used to determine antibiotic selectivity of the peptides: Escherichia coli (ATCC 25922), Pseudomonas aeruginosa (P. aeruginosa ATCC 27853, P8191900, P1021903, P1021913, IMP 1 Livermore 3140).

[2] = system: Pseudomonas aeruginosa P8191900; format: cell-based; details: P8191900
Procedure: as §1

[3] = system: Pseudomonas aeruginosa P1021913; format: cell-based; details: P1021913
Procedure: as §1

[4] = system: Pseudomonas aeruginosa P1021903; format: cell-based; details: P1021903
Procedure: as §1

HELA cells (Acc57) = test: Cytotoxicity assay, MTT reduction (LC 50, GI 50); format: cell-based
Procedure: The cytotoxicity of the peptides to HELA cells (Acc57) and COS-7 cells (CRL-1651) was determined using the MIT reduction assay [see ref. 2 and 3, below]. Briefly the method was as follows: HELA cells and COS-7 cells were seeded at 7.0×10^3 and, respectively, 4.5×10^3 cells per well and grown in 96-well […] plates for 24 hours at 37° C. at 5% CO2. At this point, time zero (Tz) was determined by MTT reduction (see below). The supernatant of the remaining wells was discarded, and fresh medium and the peptides in serial dilutions of 12.5, 25 and 50 μM were dispensed into the wells. Each peptide concentration was assayed in triplicate. Incubation of the cells was continued for 48 hours at 37° C. at 5% CO2. Wells were then washed once with phosphate buffered saline (PBS) and subsequently 100 μl MIT reagent (0.5 mg/ml in medium RPMI1640 and, respectively, DMEM) were added to the wells. This was incubated at 37° C. for 2 hours and subsequently the medium was aspirated and 100 μl isopropanol were added to each well. The absorbance at 595 nm of the solubilized product was measured (OD595peptide). For each concentration averages were calculated from triplicates. The percentage of growth was calculated as follows: (OD595peptide-OD595Tz-OD595Empty well)/(OD595Tz-OD595Empty well)×100% and was plotted for each peptide concentration.
The LC 50 values (Lethal Concentration, defined as the concentration that kills 50% of the cells) were determined for each peptide by using the trend line function of EXCEL (Microsoft Office 2000) for the concentrations (50, 25, 12.5 and 0 μM), the corresponding growth percentages and the value −50, (=TREND(C50:C0,%50:%0,−50)). The GI 50 (Growth Inhibition) concentrations were calculated for each peptide by using a trend line function for the concentrations (50, 25, 12.5 and 0 […]), the corresponding percentages and the value 50, (=TREND (C50:C0,%50:%0,50).

[5] = system: human red blood cells (hRBC); test: Hemolysis; format: cell-based; details: 100
Procedure: Hemolysis of red blood cells is often employed for assessment of toxicity of related compounds such as protegrin or tachyplesin. Values are given as %-lysis of red blood cells observed at a concentration of 100 μg/ml. Typical values determined for cationic peptides such as protegrin and tachyplesin range between 30-40% with average MIC-values of 1-5 μg/ml over a wide range of pathogens.
The peptides were tested for their hemolytic activity against human red blood cells (hRBC). Fresh hRBC were washed three times with phosphate buffered saline (PBS) by centrifugation for 10 min at 2000×g. Peptides at a concentration of 100 μM were incubated with 20% v/v hRBC for 1 hour at 37° C. The final erythrocyte concentration was approximately 0.9×10^9 cells per ml. A value of 0% and, respectively, 100% cell lysis was determined by incubation of the hRBC in the presence of PBS alone and, respectively, 0.1% Triton X-100 in H2O. The samples were centrifuged, the supernatant was 20-fold diluted in PBS buffer and the optical density (OD) of the sample at […] was measured. The 100% lysis value (OD540H20) gave an OD540 of approximately 1.3-1.8. Percent hemolysis was calculated as follows: (OD540peptide/OD540H20)×100%.

P. aeruginosa ATCC 27853 = format: cell-based, Pseudomonas aeruginosa; details: ATCC 27853
Procedure: as §1

## CC[C@H](C)[C@@H]1NC(=O)[C@H](Cc2c[nH]c3ccccc23)NC(=O)[C@H]([C@@H](C)O)NC(=O)[C@@H]2CCCN2C(=O)[C@H]2CCCN2C(=O)[C@H](CCN)NC(=O)[C@H](CCC(N)=O)NC(=O)[C@H](CCN)NC(=O)[C@H](CCN)NC(=O)[C@H](Cc2c[nH]c3ccccc23)NC(=O)[C@H](CCN)NC(=O)[C@H](CCN)NC(=O)[C@H](CCCCN)NC(=O)[C@H](CCN)NC1=O [Example 13] (cyclo(TWI[Dab]K[Dab][Dab]W[Dab][Dab]Q[Dab][dP]P))
[1]
  MIC P. aeruginosa IMP1 Livermore 3140: 0.75 µg/mL (≈ 0.458 µM)
[2]
  MIC P. aeruginosa P8191900: 0.30 µg/mL (≈ 0.183 µM)
[3]
  MIC P. aeruginosa P1021913: 0.31 µg/mL (≈ 0.189 µM)
[4]
  MIC P. aeruginosa P1021903: 0.40 µg/mL (≈ 0.244 µM)
HELA cells (Acc57)
  Cytotoxicity GI50 Hela cells: 50 µM
P. aeruginosa
  Average MIC: 0.40 µg/mL
[5]
  Hemolysis at 100 μg/ml: 0.4%
P. aeruginosa ATCC 27853
  MIC P. aeruginosa ATCC 27853: 0.21 µg/mL (≈ 0.128 µM)

## CC[C@H](C)[C@@H]1NC(=O)[C@H](Cc2ccc(O)cc2)NC(=O)[C@H](CC(=O)O)NC(=O)[C@@H]2CCCN2C(=O)[C@H]2CCCN2C(=O)[C@H](CCN)NC(=O)[C@H](C)NC(=O)[C@H](CCN)NC(=O)[C@H](CCN)NC(=O)[C@H](Cc2c[nH]c3ccccc23)NC(=O)[C@H](CCN)NC(=O)[C@@H](CCN)NC(=O)[C@H](CCCCN)NC(=O)[C@H](CCN)NC1=O [Example 42] (cyclo(DYI[Dab]K[dDab][Dab]W[Dab][Dab]A[Dab][dP]P))
[1]
  MIC P. aeruginosa IMP1 Livermore 3140: 0.50 µg/mL (≈ 0.318 µM)
[2]
  MIC P. aeruginosa P8191900: 0.06 µg/mL (≈ 0.0382 µM)
[3]
  MIC P. aeruginosa P1021913: 0.50 µg/mL (≈ 0.318 µM)
[4]
  MIC P. aeruginosa P1021903: 0.125 µg/mL (≈ 0.0795 µM)
HELA cells (Acc57)
  Cytotoxicity GI50 Hela cells: 50 µM
P. aeruginosa
  Average MIC: 0.29 µg/mL
[5]
  Hemolysis at 100 μg/ml: 0.2%
P. aeruginosa ATCC 27853
  MIC P. aeruginosa ATCC 27853: 0.25 µg/mL (≈ 0.159 µM)

## CC[C@H](C)[C@@H]1NC(=O)[C@H](Cc2c[nH]c3ccccc23)NC(=O)[C@H]([C@@H](C)O)NC(=O)[C@@H]2CCCN2C(=O)[C@H]2CCCN2C(=O)[C@H](CCN)NC(=O)[C@H](C(C)C)NC(=O)[C@H](CCN)NC(=O)[C@H](CCN)NC(=O)[C@H](Cc2c[nH]c3ccccc23)NC(=O)[C@H](CCN)NC(=O)[C@H](CCN)NC(=O)[C@H](CCCCN)NC(=O)[C@H](CCC(N)=O)NC1=O [Example 30] (cyclo(TWIQK[Dab][Dab]W[Dab][Dab]V[Dab][dP]P))
[1]
  MIC P. aeruginosa IMP1 Livermore 3140: 2.00 µg/mL (≈ 1.22 µM)
[2]
  MIC P. aeruginosa P8191900: 0.13 µg/mL (≈ 0.0794 µM)
[3]
  MIC P. aeruginosa P1021913: 0.50 µg/mL (≈ 0.305 µM)
[4]
  MIC P. aeruginosa P1021903: 0.30 µg/mL (≈ 0.183 µM)
HELA cells (Acc57)
  Cytotoxicity GI50 Hela cells: 46 µM
P. aeruginosa
  Average MIC: 0.60 µg/mL
[5]
  Hemolysis at 100 μg/ml: 0.5%
P. aeruginosa ATCC 27853
  MIC P. aeruginosa ATCC 27853: 0.09 µg/mL (≈ 0.055 µM)

## CC[C@H](C)[C@@H]1NC(=O)[C@H](Cc2c[nH]c3ccccc23)NC(=O)[C@H]([C@@H](C)O)NC(=O)[C@@H]2CCCN2C(=O)[C@H]2CCCN2C(=O)[C@H](CCN)NC(=O)[C@@H](C(C)C)NC(=O)[C@H](CCN)NC(=O)[C@H](CCN)NC(=O)[C@H](Cc2c[nH]c3ccccc23)NC(=O)[C@H](CCN)NC(=O)[C@H](CCN)NC(=O)[C@H](CCCCN)NC(=O)[C@H](CCN)NC1=O [Example 4] (cyclo(TWI[Dab]K[Dab][Dab]W[Dab][Dab][dV][Dab][dP]P))
[1]
  MIC P. aeruginosa IMP1 Livermore 3140: >2.0 µg/mL
[2]
  MIC P. aeruginosa P8191900: 1.50 µg/mL (≈ 0.932 µM)
[3]
  MIC P. aeruginosa P1021913: 2.50 µg/mL (≈ 1.55 µM)
[4]
  MIC P. aeruginosa P1021903: 1.50 µg/mL (≈ 0.932 µM)
HELA cells (Acc57)
  Cytotoxicity GI50 Hela cells: 40 µM
P. aeruginosa
  Average MIC: >1 µg/mL
[5]
  Hemolysis at 100 μg/ml: 0.6%
P. aeruginosa ATCC 27853
  MIC P. aeruginosa ATCC 27853: 0.75 µg/mL (≈ 0.466 µM)

## CC[C@H](C)[C@@H]1NC(=O)[C@H](Cc2ccc(O)cc2)NC(=O)[C@H](CC(=O)O)NC(=O)[C@@H]2CCCN2C(=O)[C@H]2CCCN2C(=O)[C@H](CCN)NC(=O)[C@H](C)NC(=O)[C@H](CCN)NC(=O)[C@H](CCN)NC(=O)[C@H](Cc2c[nH]c3ccccc23)NC(=O)[C@H](CCN)NC(=O)[C@@H](CCN)NC(=O)[C@H](CCCN)NC(=O)[C@H](CCN)NC1=O [Example 43] (cyclo(DYI[Dab][Orn][dDab][Dab]W[Dab][Dab]A[Dab][dP]P))
[1]
  MIC P. aeruginosa IMP1 Livermore 3140: 2.00 µg/mL (≈ 1.28 µM)
[2]
  MIC P. aeruginosa P8191900: 0.50 µg/mL (≈ 0.321 µM)
[3]
  MIC P. aeruginosa P1021913: 2.00 µg/mL (≈ 1.28 µM)
[4]
  MIC P. aeruginosa P1021903: 0.125 µg/mL (≈ 0.0802 µM)
HELA cells (Acc57)
  Cytotoxicity GI50 Hela cells: 50 µM
P. aeruginosa
  Average MIC: 0.95 µg/mL
[5]
  Hemolysis at 100 μg/ml: 0.5%
P. aeruginosa ATCC 27853
  MIC P. aeruginosa ATCC 27853: 0.13 µg/mL (≈ 0.0834 µM)

## CCCC[C@@H]1NC(=O)[C@H](CCN)NC(=O)[C@H](CCN)NC(=O)[C@H](Cc2c[nH]c3ccccc23)NC(=O)[C@H](CCN)NC(=O)[C@H](CCN)NC(=O)[C@H](CCCCN)NC(=O)[C@H](CCN)NC(=O)[C@H]([C@@H](C)CC)NC(=O)[C@H](Cc2c[nH]c3ccccc23)NC(=O)[C@H]([C@@H](C)O)NC(=O)[C@@H]2CCCN2C(=O)[C@H]2CCCN2C(=O)[C@H](CCN)NC1=O [Example 9] (cyclo(TWI[Dab]K[Dab][Dab]W[Dab][Dab][Nle][Dab][dP]P))
[1]
  MIC P. aeruginosa IMP1 Livermore 3140: >2 µg/mL
[2]
  MIC P. aeruginosa P8191900: 0.75 µg/mL (≈ 0.462 µM)
[3]
  MIC P. aeruginosa P1021913: 0.75 µg/mL (≈ 0.462 µM)
[4]
  MIC P. aeruginosa P1021903: 1.50 µg/mL (≈ 0.924 µM)
HELA cells (Acc57)
  Cytotoxicity GI50 Hela cells: 50 µM
P. aeruginosa
  Average MIC: >1 µg/mL
[5]
  Hemolysis at 100 μg/ml: 0.7%
P. aeruginosa ATCC 27853
  MIC P. aeruginosa ATCC 27853: 0.21 µg/mL (≈ 0.129 µM)

## C[C@@H]1NC(=O)[C@H](CCN)NC(=O)[C@H](CCN)NC(=O)[C@H](Cc2c[nH]c3ccccc23)NC(=O)[C@H](CCN)NC(=O)[C@H](CCN)NC(=O)[C@H](CCCCN)NC(=O)[C@H](CCN)NC(=O)[C@H](C2CCCCC2)NC(=O)[C@H](Cc2c[nH]c3ccccc23)NC(=O)[C@H]([C@@H](C)O)NC(=O)[C@@H]2CCCN2C(=O)[C@H]2CCCN2C(=O)[C@H](CCN)NC1=O [Example 33] (cyclo(TW[Chg][Dab]K[Dab][Dab]W[Dab][Dab]A[Dab][dP]P))
[1]
  MIC P. aeruginosa IMP1 Livermore 3140: 0.43 µg/mL (≈ 0.268 µM)
[2]
  MIC P. aeruginosa P8191900: 0.18 µg/mL (≈ 0.112 µM)
[3]
  MIC P. aeruginosa P1021913: 0.31 µg/mL (≈ 0.193 µM)
[4]
  MIC P. aeruginosa P1021903: 0.29 µg/mL (≈ 0.18 µM)
HELA cells (Acc57)
  Cytotoxicity GI50 Hela cells: 50 µM
P. aeruginosa
  Average MIC: 0.25 µg/mL
[5]
  Hemolysis at 100 μg/ml: 0.1%
P. aeruginosa ATCC 27853
  MIC P. aeruginosa ATCC 27853: 0.05 µg/mL (≈ 0.0311 µM)
